# Square brackets hold non-standard residues; d marks the D form. Peptide text beside a SMILES is read from it. * marks the point of attachment. Octanoyl = CCCCCCCC(=O)*
# System: HL60 promyelocytic leukemia cells
# Assay: Cytotoxicity assay in HL60 cells (Annexin V FITC / PI flow cytometry)
# Assay type: cell-based
# Details: 48 hours, 0-80 μM, % Viability (Annexin V low, PI low)
# Description: We examined the cytotoxicity of peptides BCL-26 and BCL-27 using an assay in HL60 promyelocytic leukemia cells. HL60 PML suspension cells were set at a density of 3.5×10^3 cells/well in 150 μL of RPMI+1.5% fetal bovine serum (FBS) in a 96 well dish. BCL-26 or BCL-27, reconstituted at a concentration of 10 mg/mL in 20 mM His, pH 7.5, was added to each well at a volume of 50 μL to a final concentration range of 0-80 μM. Cells were incubated with peptide for 48 hours at 37° C. Cell viability was quantified by flow cytometry using abcam Annexin V FITC apoptosis detection kit. Briefly, cells were washed with PBS and resuspended in 1× assay buffer containing Annexin V FITC and propidium iodide (PI). Annexin V detects apoptotic cells, and PI stains dead cells. After staining, apoptotic cells show green fluorescence, dead cells show red and green fluorescence, and live cells show little or no fluorescence. Cells were selected for analysis based on forward scatter (FSC) vs. side scatter (SSC), and analyzed by BD Accuri C6 Plus flow cytometer to detect Annexin V-FITC binding (Ex=488 nm; Em=530 nm) using FITC signal detector and PI staining by the phycoerythrnn emission signal detector. Percentage of Annexin V^low and PI^low were quantified and presented as % Viability.
# We examined the cytotoxicity of additional retro inverso and mixed chirality BCL9 mimetic peptides in HL60 cells using the assay described above.
row,Compound,EC50
1,CC(C)C[C@@H](NC(=O)[C@@H](Cc1c[nH]c2ccccc12)NC(=O)[C@H](N)Cc1c[nH]c2ccccc12)C(=O)N[C@H](C)C(=O)N[C@H](CCCNC(=N)N)C(=O)N[C@H](CCC(N)=O)C(=O)N[C@H](CC(C)C)C(=O)N[C@H](CCC(=O)O)C(=O)N[C@H](CCCNC(=N)N)C(=O)N[C@H](CC(C)C)C(=O)N[C@H](C)C(=O)N[C@H](CCCNC(=N)N)C(=O)N[C@H](CC(C)C)C(=O)N[C@H](C)C(=O)N[C@H](CCCCN)C(=O)N[C@H](CC(C)C)C(=O)N[C@@H](C(=O)N1CCC[C@@H]1C(=O)N[C@@H](C(=O)O)C(C)C)[C@H](C)O [BCL-86] (H-[dW][dW][dL][dA][dR][dQ][dL][dE][dR][dL][dA][dR][dL][dA][dK][dL][dT][dP][dV]-OH; N-terminus and C-terminus assumed),< 2 µM
2,CC(C)C[C@@H](NC(=O)[C@@H](Cc1c[nH]c2ccccc12)NC(=O)[C@H](N)Cc1c[nH]c2ccccc12)C(=O)N[C@H](C)C(=O)N[C@H](CCCNC(=N)N)C(=O)N[C@H](CCC(N)=O)C(=O)N[C@H](CC(C)C)C(=O)N[C@H](CCC(=O)O)C(=O)N[C@H](CCCNC(=N)N)C(=O)N[C@H](CC(C)C)C(=O)N[C@H](CCCNC(=N)N)C(=O)N[C@H](CCCNC(=N)N)C(=O)N[C@H](CC(C)C)C(=O)N[C@H](C)C(=O)N[C@H](CCCCN)C(=O)N[C@H](CC(C)C)C(=O)N[C@@H](C(=O)N1CCC[C@@H]1C(=O)N[C@@H](C(=O)O)C(C)C)[C@H](C)O [BCL-88] (H-[dW][dW][dL][dA][dR][dQ][dL][dE][dR][dL][dR][dR][dL][dA][dK][dL][dT][dP][dV]-OH; N-terminus and C-terminus assumed),< 2 µM
3,CC(C)C[C@@H](NC(=O)[C@@H](Cc1c[nH]c2ccccc12)NC(=O)[C@H](N)Cc1c[nH]c2ccccc12)C(=O)N[C@H](C)C(=O)N[C@H](CCCNC(=N)N)C(=O)N[C@H](CCC(N)=O)C(=O)N[C@H](CC(C)C)C(=O)N[C@H](C)C(=O)N[C@H](CCCNC(=N)N)C(=O)N[C@H](CC(C)C)C(=O)N[C@H](CCCCN)C(=O)N[C@H](CCC(N)=O)C(=O)N[C@H](CC(C)C)C(=O)N[C@H](C)C(=O)N[C@H](CCCCN)C(=O)N[C@H](CC(C)C)C(=O)N[C@@H](C(=O)N1CCC[C@@H]1C(=O)N[C@@H](C(=O)O)C(C)C)[C@H](C)O [BCL-89] (H-[dW][dW][dL][dA][dR][dQ][dL][dA][dR][dL][dK][dQ][dL][dA][dK][dL][dT][dP][dV]-OH; N-terminus and C-terminus assumed),2 to 10 µM
4,CC(C)C[C@@H](NC(=O)[C@@H](Cc1c[nH]c2ccccc12)NC(=O)[C@H](N)Cc1c[nH]c2ccccc12)C(=O)N[C@H](C)C(=O)N[C@H](CCCNC(=N)N)C(=O)N[C@H](CCC(N)=O)C(=O)N[C@H](CC(C)C)C(=O)N[C@H](CCC(=O)O)C(=O)N[C@H](CCCNC(=N)N)C(=O)N[C@H](CC(C)C)C(=O)N[C@H](C)C(=O)N[C@H](CCCCN)C(=O)N[C@H](CC(C)C)C(=O)N[C@H](C)C(=O)N[C@H](CCCCN)C(=O)N[C@H](CC(C)C)C(=O)N[C@@H](C(=O)N1CCC[C@@H]1C(=O)N[C@@H](C(=O)O)C(C)C)[C@H](C)O [BCL-90] (H-[dW][dW][dL][dA][dR][dQ][dL][dE][dR][dL][dA][dK][dL][dA][dK][dL][dT][dP][dV]-OH; N-terminus and C-terminus assumed),2 to 10 µM
5,CC(C)C[C@@H](NC(=O)[C@@H](CCCNC(=N)N)NC(=O)[C@@H](C)NC(=O)[C@@H](CC(C)C)NC(=O)[C@@H](CCC(N)=O)NC(=O)[C@@H](CCCNC(=N)N)NC(=O)[C@H](NC(=O)[C@@H](CC(C)C)NC(=O)[C@@H](Cc1c[nH]c2ccccc12)NC(=O)[C@H](N)Cc1c[nH]c2ccccc12)C(C)C)C(=O)N[C@H](C)C(=O)N[C@H](CCC(N)=O)C(=O)N[C@H](CC(C)C)C(=O)N[C@H](C)C(=O)N[C@H](CCCCN)C(=O)N[C@H](CC(C)C)C(=O)N[C@@H](C(=O)N1CCC[C@@H]1C(=O)N[C@@H](C(=O)O)C(C)C)[C@H](C)O [BCL-91a] (H-[dW][dW][dL][dV][dR][dQ][dL][dA][dR][dL][dA][dQ][dL][dA][dK][dL][dT][dP][dV]-OH; N-terminus and C-terminus assumed),< 2 µM
6,CCCCCCCC(=O)N[C@H](Cc1c[nH]c2ccccc12)C(=O)N[C@H](Cc1c[nH]c2ccccc12)C(=O)N[C@H](CC(C)C)C(=O)N[C@@H](C(=O)N[C@H](CCCNC(=N)N)C(=O)N[C@H](CCC(N)=O)C(=O)N[C@H](CC(C)C)C(=O)N[C@H](C)C(=O)N[C@H](CCCNC(=N)N)C(=O)N[C@H](CC(C)C)C(=O)N[C@H](C)C(=O)N[C@H](CCC(N)=O)C(=O)N[C@H](CC(C)C)C(=O)N[C@H](C)C(=O)N[C@H](CCCCN)C(=O)N[C@H](CC(C)C)C(=O)N[C@@H](C(=O)N1CCC[C@@H]1C(=O)N[C@@H](C(=O)O)C(C)C)[C@H](C)O)C(C)C [BCL-91b] (Octanoyl-[dW][dW][dL][dV][dR][dQ][dL][dA][dR][dL][dA][dQ][dL][dA][dK][dL][dT][dP][dV]-OH; C-terminus assumed),< 2 µM
7,CC(C)C[C@@H](NC(=O)[C@@H](CCC(N)=O)NC(=O)[C@@H](C)NC(=O)[C@@H](CC(C)C)NC(=O)[C@@H](CCCNC(=N)N)NC(=O)[C@@H](C)NC(=O)[C@@H](CC(C)C)NC(=O)[C@@H](CCC(N)=O)NC(=O)[C@@H](CCCNC(=N)N)NC(=O)[C@@H](C)NC(=O)[C@@H](CC(C)C)NC(=O)[C@@H](Cc1c[nH]c2ccccc12)NC(=O)[C@@H](Cc1c[nH]c2ccccc12)NC(=O)CNC(=O)[C@@H](CCCNC(=N)N)NC(=O)CNC(=O)[C@@H](CC(=O)O)NC(=O)[C@@H](CO)NC(=O)[C@H]1CCCN1)C(=O)N[C@H](C)C(=O)O [BCL-92] (H-[dP][dS][dD]G[dR]G[dW][dW][dL][dA][dR][dQ][dL][dA][dR][dL][dA][dQ][dL][dA]-OH; N-terminus and C-terminus assumed),2 to 10 µM
8,CC(C)C[C@@H](NC(=O)[C@@H](Cc1c[nH]c2ccccc12)NC(=O)[C@@H](N)Cc1c[nH]c2ccccc12)C(=O)N[C@H](C)C(=O)N[C@H](CCCNC(=N)N)C(=O)N[C@H](CCC(N)=O)C(=O)N[C@H](CC(C)C)C(=O)N[C@H](C)C(=O)N[C@H](CCCNC(=N)N)C(=O)N[C@H](CC(C)C)C(=O)N[C@H](C)C(=O)N[C@H](CCC(N)=O)C(=O)N[C@H](CC(C)C)C(=O)N[C@H](C)C(=O)N[C@H](CCCCN)C(=O)N[C@H](CC(C)C)C(=O)N[C@@H](C(=O)N1CCC[C@@H]1C(=O)N[C@@H](C(=O)O)C(C)C)[C@H](C)O [BCL-95] (H-W[dW][dL][dA][dR][dQ][dL][dA][dR][dL][dA][dQ][dL][dA][dK][dL][dT][dP][dV]-OH; N-terminus and C-terminus assumed),< 2 µM
9,CC(C)C[C@@H](NC(=O)[C@@H](Cc1c[nH]c2ccccc12)NC(=O)[C@@H](N)Cc1c[nH]c2ccccc12)C(=O)N[C@H](C)C(=O)N[C@H](CCCNC(=N)N)C(=O)N[C@H](CCC(N)=O)C(=O)N[C@H](CC(C)C)C(=O)N[C@H](C)C(=O)N[C@H](CCCNC(=N)N)C(=O)N[C@H](CC(C)C)C(=O)N[C@H](CCCNC(=N)N)C(=O)N[C@H](CCC(N)=O)C(=O)N[C@H](CC(C)C)C(=O)N[C@H](C)C(=O)N[C@H](CCCCN)C(=O)N[C@H](CC(C)C)C(=O)N[C@@H](C(=O)N1CCC[C@@H]1C(=O)N[C@@H](C(=O)O)C(C)C)[C@H](C)O [BCL-96] (H-W[dW][dL][dA][dR][dQ][dL][dA][dR][dL][dR][dQ][dL][dA][dK][dL][dT][dP][dV]-OH; N-terminus and C-terminus assumed),< 2 µM
10,CC(C)C[C@@H](NC(=O)[C@@H](Cc1c[nH]c2ccccc12)NC(=O)[C@@H](N)Cc1c[nH]c2ccccc12)C(=O)N[C@H](C)C(=O)N[C@H](CCCNC(=N)N)C(=O)N[C@H](CCC(N)=O)C(=O)N[C@H](CC(C)C)C(=O)N[C@H](CCC(=O)O)C(=O)N[C@H](CCCNC(=N)N)C(=O)N[C@H](CC(C)C)C(=O)N[C@H](CCCNC(=N)N)C(=O)N[C@H](CCCNC(=N)N)C(=O)N[C@H](CC(C)C)C(=O)N[C@H](C)C(=O)N[C@H](CCCCN)C(=O)N[C@H](CC(C)C)C(=O)N[C@@H](C(=O)N1CCC[C@@H]1C(=O)N[C@@H](C(=O)O)C(C)C)[C@H](C)O [BCL-97] (H-W[dW][dL][dA][dR][dQ][dL][dE][dR][dL][dR][dR][dL][dA][dK][dL][dT][dP][dV]-OH; N-terminus and C-terminus assumed),< 2 µM
11,CC(C)C[C@@H](NC(=O)[C@@H](Cc1c[nH]c2ccccc12)NC(=O)[C@@H](N)Cc1c[nH]c2ccccc12)C(=O)N[C@H](C)C(=O)N[C@H](CCCNC(=N)N)C(=O)N[C@H](CCC(N)=O)C(=O)N[C@H](CC(C)C)C(=O)N[C@H](CCC(=O)O)C(=O)N[C@H](CCCNC(=N)N)C(=O)N[C@H](CC(C)C)C(=O)N[C@H](C)C(=O)N[C@H](CCCNC(=N)N)C(=O)N[C@H](CC(C)C)C(=O)N[C@H](C)C(=O)N[C@H](CCCCN)C(=O)N[C@H](CC(C)C)C(=O)N[C@@H](C(=O)N1CCC[C@@H]1C(=O)N[C@@H](C(=O)O)C(C)C)[C@H](C)O [BCL-98] (H-W[dW][dL][dA][dR][dQ][dL][dE][dR][dL][dA][dR][dL][dA][dK][dL][dT][dP][dV]-OH; N-terminus and C-terminus assumed),2 to 10 µM
